Source: US9517231B2, “Methods and pharmaceutical compositions for the treatment of symptoms of anxiety and panic using beta adrenergic receptor antagonist and muscarinic receptor antagonist combinations” (priority 2014, dated 2016)
Entries after “also recorded” stand apart in the source; their conditions may differ. Structures can show the parent of a compound that is named as a salt. Where two headings read alike, the source gives them in different places.

Experiments:
[1] = taste and mouth paresthesia of dose forms in humans
[2] = oral atenolol 50 mg, oral scopolamine HBr 0.3 mg; baseline and during sauna heat; cited from earlier work
[3] = oral atenolol 50-200 mg; ~10 bpm on placebo; cited from earlier work
[4] = healthy volunteers, CO2 inhalation; cited from earlier work
[5] = cited from earlier work
[6] = biological target: muscarinic acetylcholine receptors, all five human receptor subtypes; settings: cited from earlier work
[7] = liquid compositions, under or on the tongue
[8] = sublingual solid dose forms, HCl
[9] = oral 40 mg one hour prior to TSST

For CC(C)NCC(O)COc1cccc2ccccc12 (stereo not drawn) [Propranolol HCl], the mouth paresthesia [1, 7] was “produces mouth paresthesia”, the taste [1, 7] was ““acidic” and “medicine” taste” and the mouth/tongue paresthesia [1, 8] was “delayed paresthesia of the tongue”. The taste [1, 8] was ““acidic” and “medicine” taste”.
For CC(C)NCC(O)COc1ccc(CC(N)=O)cc1 (stereo not drawn) [atenolol], the “cardiovascular effects (heart rate, blood pressure)” value [2] is given as “reduced heart rate and blood pressure”, the mouth/tongue paresthesia ([1]; sublingual solid dose forms) is given as “neither property was observed; also recorded: lacked these undesirable characteristics; also recorded: do not produce mouth paresthesia” and the taste ([1]; sublingual solid dose forms) is given as “neither property was observed; also recorded: lacked these undesirable characteristics; also recorded: do not have a taste”. For the same compound, the suppresses heart rate [3] was 23-24 bpm.
In the case of CC(C)NCC(O)COc1cccc2ccccc12 (stereo not drawn) [propranolol], the mouth/tongue paresthesia ([1]; sublingual solid dose forms) is listed as “Paresthesia”, the taste ([1]; sublingual solid dose forms) is listed as “undesirable taste” and the heart rate [4] is listed as “significantly decreased”. The psychic anxiolytic benefit [4] was “did not provide”, the “BP or subjective stress” value ([5]; 80 mg one hour prior to TSST) was “did not significantly affect” and the heart rate ([5]; 80 mg one hour prior to TSST) was “significantly reduced”. For the same compound, the salivary cortisol ([5]; 80 mg one hour prior to TSST) was “increased”, the salivary cortisol response ([5]; daily oral 80 mg) was “did not affect” and the “cognitive flexibility during stress” value [5, 9] was “enhanced”. For the same compound, the heart rate [5, 9] was “significantly reduced” and the systolic blood pressure [5, 9] was “reduced”.
For CN1[C@@H]2C[C@@H](OC(=O)[C@H](CO)c3ccccc3)C[C@H]1[C@@H]1O[C@@H]12 [scopolamine], the Ki [6] is listed as 0.34 to 5.3 nM and the “cardiovascular effects (heart rate, blood pressure)” value [2] is listed as “essentially no effect”.
